Reference: patent publication US12552757B2, “NRF2-activating compound” (SENJU PHARMACEUTICAL CO., LTD., priority 2019, dated 2026)

Experiments:
[1] = target: T1, binding between NRF2 and KEAP1 (Homo sapiens, UniProt Q14145); experiment: Measurement 1 of Nrf2 activating action (binding assay): BRET assay of inhibition of the binding between NRF2 and KEAP1; conditions: 50% binding inhibitory concentration, NanoLuc-NRF2 / KEAP1-HaloTag cell lysates
T1 construct: expressed in transfected cells; host or cells: HCE-T cells; each protein was expressed separately, and the two cell lysates were mixed in the well
Description: Compounds 1 to 53 produced in the Examples were used as test substances.
The inhibitory activity of each compound on the binding between NRF2 and KEAP1 was measured by bioluminescence resonance energy transfer (BRET) assay. A plasmid having human NRF2 (Original Clone ID: ha01449s1) sequence fused with NanoLuc (19 kDa, Promega) at the N-terminal was transduced into HCE-T cells using FuGENE HD (Promega). 48 hours after transduction, the cell lysate was collected and used as an NRF2-expressing cell lysate. A plasmid having human KEAP1 (Original Clone ID: cs00328) sequence fused with HaloTag (33 kDa, Promega) at the C-terminal was transduced into HCE-T cells using FuGENE HD (Promega). After 24 hours, HaloTag Nano BRET 618 Ligand (Promega) was added to the medium. The cell lysate cultured for 24 hours after the addition was used as a KEAP1-expressing cell lysate.
The NRF2-expressing cell lysate and the KEAP1-expressing cell lysate were adjusted so that the luminescence and fluorescence intensities per well were constant. Tables 1 and 2 show the formulation of each reaction solution.
Each test substance at a concentration 100 times higher than the test concentration was dissolved in dimethylsulfoxide for adjustment. 49 μL of KEAP1 solution was added to a 96-well polystyrene microplate (FALCON) to which 1 μL of each test substance solution was added, followed by incubation for 15 minutes. Then, 50 μL of NRF2 solution was added to the above solution, followed by incubation for 1 hour. To measure the binding between NRF2 and KEAP1, NanoBRET Nano-Glo Substrate (Promega) diluted with Opti-Mem (Thermo Fisher Scientific) was added, followed by shaking for 30 seconds. Then, luminescence and fluorescence were measured using the GloMax Discover System (Promega). A 495-nm short pass filter and a 600-nm long pass filter were respectively used to measure donor and acceptor emission values. A value obtained by dividing the acceptor emission value by the donor emission value was regarded as BRET value. A BRET value when the compound was not added, and a BRET value when the KEAP1 solution was not added were respectively used as binding rates of 100% and 0%, and the binding rate when the compound was added was calculated. Further, using this binding rate, the 50% binding inhibitory activity concentration (IC50) was calculated from the following formula: IC50(M)=10^(LOG(A/B)×(50−C)/(D−C)+LOG(B)) • A: higher concentration out of 2 close concentrations across the inhibition rate of 50% • B: lower concentration out of 2 close concentrations across the inhibition rate of 50% • C: inhibition rate at B • D: inhibition rate at A

[2] = Measurement of metabolic stability in human liver microsomes; assay type: in vitro ADME; conditions: residual ratio of test compound after 30 minutes at 37° C. with human liver microsome, LC/MS/MS
Description: 1 mmol/L DMSO solutions of the compounds produced in the Examples were prepared. Each of the 1 mmol/L DMSO solutions was diluted with acetonitrile to 10 μmol/L, and then diluted with a 6.5 mmol/L Q-NADPH solution to 200 nmol/L. 50 μL of each solution was added to the reaction group and the non-reaction group. 50 μL of a 0.2 mg protein/mL human liver microsome (Mixed Gender, Pool of 50 livers; XenoTech, LLC) solution was added to the reaction group, followed by incubation at 37° C. for 30 minutes with shaking. After 400 μL of methanol was added to the non-reaction group, 50 μL of a 0.2 mg protein/mL human liver microsome solution was added to adjust the formulation. After incubation in the reaction group, 400 μL of methanol was added to stop the reaction. The samples of the reaction group and non-reaction group were allowed to stand at −20° C. for about 30 minutes, followed by centrifugation at 4° C. at 3000 rpm for about 10 minutes. The supernatant was analyzed using LC/MS/MS, and the residual ratio of the test compound was calculated from the peak area value of the test compound using the following formula. The measurement was carried out using the following devices: HPLC system: LC-20A-Series High Performance Liquid Chromatograph (Shimadzu Corporation) and mass spectrometer: API 4000 (AB Sciex Pte. Ltd.), or using equivalent devices. Residual ratio (%)=(peak area value of test compound in reaction group/peak area value of test compound in non-reaction group)×100 Results

T1 sequence (Q14145 whole entry): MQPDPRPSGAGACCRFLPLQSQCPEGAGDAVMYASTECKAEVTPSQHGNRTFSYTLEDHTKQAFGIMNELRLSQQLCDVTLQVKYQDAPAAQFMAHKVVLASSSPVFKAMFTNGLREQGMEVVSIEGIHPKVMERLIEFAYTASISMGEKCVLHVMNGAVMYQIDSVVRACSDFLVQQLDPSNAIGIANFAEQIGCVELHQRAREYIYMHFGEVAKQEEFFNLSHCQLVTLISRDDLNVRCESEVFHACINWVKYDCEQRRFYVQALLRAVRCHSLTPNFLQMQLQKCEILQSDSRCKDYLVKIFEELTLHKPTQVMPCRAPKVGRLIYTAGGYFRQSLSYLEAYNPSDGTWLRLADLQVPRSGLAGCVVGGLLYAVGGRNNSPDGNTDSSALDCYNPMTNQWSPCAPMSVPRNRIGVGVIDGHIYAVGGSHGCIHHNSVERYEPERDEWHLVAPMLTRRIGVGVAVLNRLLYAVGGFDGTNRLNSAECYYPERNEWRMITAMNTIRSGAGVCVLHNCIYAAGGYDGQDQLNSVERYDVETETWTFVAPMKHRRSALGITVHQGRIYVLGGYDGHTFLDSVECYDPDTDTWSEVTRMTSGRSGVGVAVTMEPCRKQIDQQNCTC

IC50 [1] [nM] | Metabolic stability* [2] [%] | SMILES
0.83 | 72 | CC[C@@H]1CN(Cc2cc(C(c3ccc(C(C)=O)o3)C(C)C(=O)O)ccc2C)S(=O)(=O)c2ccccc2O1 (stereo partly drawn) [Compound 24, 3-(5-acetylfuran-2-yl)-3-(3-{[(R)-4-ethyl-1,1-dioxide-3,4-dihydro-2H-benzo[b][1,4,5]oxathiazepin-2-yl]methyl}-4-methylphenyl)-2-methylpropanoic acid]
17 | 93 | CC[C@@H]1CN(Cc2cc(C(CC(=O)O)c3ccc(C(=O)NC)o3)ccc2C)S(=O)(=O)c2ccccc2O1 (stereo partly drawn) [Compound 26, 3-(3-{[(R)-4-ethyl-1,1-dioxide-3,4-dihydro-2H-benzo[b][1,4,5]oxathiazepin-2-yl]methyl}-4-methylphenyl)-3-[5-(methylcarbamoyl)furan-2-yl]propanoic acid]
3.9 | 39 | CC[C@@H]1CN(Cc2cc(C(CC(=O)O)c3c(C)c(C(C)=O)c(C)n3C)ccc2C)S(=O)(=O)c2ccccc2O1 (stereo partly drawn) [Compound 35, 3-(4-acetyl-1,3,5-trimethyl-1H-pyrrol-2-yl)-3-(3-{[(R)-4-ethyl-1,1-dioxide-3,4-dihydro-2H-benzo[b][1,4,5]oxathiazepin-2-yl]methyl}-4-methylphenyl) propanoic acid]
3.8 | 72 | CC[C@@H]1CN(Cc2cc(C(CC(=O)O)c3ccc(C(C)=O)o3)ccc2C)S(=O)(=O)c2ccccc2O1 (stereo partly drawn) [Compound 25, 3-(5-acetylfuran-2-yl)-3-(3-{[(R)-4-ethyl-1,1-dioxide-3,4-dihydro-2H-benzo[b][1,4,5]oxathiazepin-2-yl]methyl}-4-methylphenyl)propanoic acid]
3.3 | 65 | CC[C@@H]1CN(Cc2cc(C(CC(=O)O)c3nc(C)c(C(C)=O)s3)ccc2C)S(=O)(=O)c2ccccc2O1 (stereo partly drawn) [Compound 41, 3-(5-acetyl-4-methylthiazol-2-yl)-3-(3-[{(R)-4-ethyl-1,1-dioxide-3,4-dihydro-2H-benzo[b][1,4,5]oxathiazepin-2-yl]methyl}-4-methylphenyl) propanoic acid]
0.22 | 61 | CC[C@@H]1CN(Cc2cc(C(CC(=O)O)c3cc4c(s3)C(=O)NC4)ccc2C)S(=O)(=O)c2ccccc2O1 (stereo partly drawn) [Compound 38, 3-(3-{[(R)-4-ethyl-1,1-dioxide-3,4-dihydro-2H-benzo[b][1,4,5]oxathiazepin-2-yl]methyl}-4-methylphenyl)-3-(6-oxo-5,6-dihydro-4H-thieno[2,3-c]pyrrol-2-yl) propanoic acid]
17 | 83 | CC[C@@H]1CN(Cc2cc(C(CC(=O)O)c3ccc(C(=O)NC(C)C)o3)ccc2C)S(=O)(=O)c2ccccc2O1 (stereo partly drawn) [Compound 29, 3-(3-{[(R)-4-ethyl-1,1-dioxide-3,4-dihydro-2H-benzo[b][1,4,5]oxathiazepin-2-yl]methyl}-4-methylphenyl)-3-[5-(isopropylcarbamoyl)furan-2-yl]propanoic acid]
19 | 67 | CC[C@@H]1CN(Cc2cc(C(CC(=O)O)c3ccc(C(=O)N4CCCC4)o3)ccc2C)S(=O)(=O)c2ccccc2O1 (stereo partly drawn) [Compound 28, 3-(3-{[(R)-4-ethyl-1,1-dioxide-3,4-dihydro-2H-benzo[b][1,4,5]oxathiazepin-2-yl]methyl}-4-methylphenyl)-3-[5-(pyrrolidine-1-carbonyl)furan-2-yl]propanoic acid]
205 | 90 | CC[C@@H]1CN(Cc2cc(C(CC(=O)O)c3ccc(CNC(C)C)o3)ccc2C)S(=O)(=O)c2ccccc2O1 (stereo partly drawn) [Compound 32, 3-(3-{[(R)-4-ethyl-1,1-dioxide-3,4-dihydro-2H-benzo[b][1,4,5]oxathiazepin-2-yl]methyl}-4-methylphenyl)-3-(5-[(isopropylamino)methyl]furan-2-yl)propanoic acid]
14 | 81 | CC[C@@H]1CN(Cc2cc(C(CC(=O)O)c3ccc(C(=O)NCCOC)o3)ccc2C)S(=O)(=O)c2ccccc2O1 (stereo partly drawn) [Compound 30, 3-(3-{[(R)-4-ethyl-1,1-dioxide-3,4-dihydro-2H-benzo[b][1,4,5]oxathiazepin-2-yl]methyl}-4-methylphenyl)-3-{5-[(2-methoxyethyl)carbamoyl]furan-2-yl}propanoic acid]
0.16 | 89 | CC[C@@H]1CN(Cc2cc(C(CC(=O)O)c3cc4c(n3C)CCCC4=O)ccc2C)S(=O)(=O)c2ccccc2O1 (stereo partly drawn) [Compound 37, 3-(3-{[(R)-4-ethyl-1,1-dioxide-3,4-dihydro-2H-benzo[b][1,4,5]oxathiazepin-2-yl]methyl}-4-methylphenyl)-3-(1-methyl-4-oxo-4,5,6,7-tetrahydro-1H-indol-2-yl)propanoic acid]
35 | 40 | CC[C@@H]1CN(Cc2cc(C(CC(=O)O)c3ccc(S(N)(=O)=O)s3)ccc2C)S(=O)(=O)c2ccccc2O1 (stereo partly drawn) [Compound 18, 3-(3-{[(R)-4-ethyl-1,1-dioxide-3,4-dihydro-2H-benzo[b][1,4,5]oxathiazepin-2-yl]methyl}-4-methylphenyl)-3-(5-sulfamoylthiophen-2-yl)propanoic acid]
0.3 | 62 | CC[C@@H]1CN(Cc2cc(C(CC(=O)O)c3ccc(C(C)=O)n3C)ccc2C)S(=O)(=O)c2ccccc2O1 (stereo partly drawn) [Compound 33, 3-(5-acetyl-1-methyl-1H-pyrrol-2-yl)-3-(3-{[(R)-4-ethyl-1,1-dioxide-3,4-dihydro-2H-benzo[b][1,4,5]oxathiazepin-2-yl]methyl}-4-methylphenyl)propanoic acid]
20 | 85 | CC[C@@H]1CN(Cc2cc(C(CC(=O)O)c3ccc(C(=O)N(C)C)o3)ccc2C)S(=O)(=O)c2ccccc2O1 (stereo partly drawn) [Compound 27, 3-[5-(dimethylcarbamoyl)furan-2-yl]-3-(3-{[(R)-4-ethyl-1,1-dioxide-3,4-dihydro-2H-benzo[b][1,4,5]oxathiazepin-2-yl]methyl}-4-methylphenyl)propanoic acid]
3.8 | 89 | CC[C@@H]1CN(Cc2cc(C(CC(=O)O)c3cncs3)ccc2C)S(=O)(=O)c2ccccc2O1 (stereo partly drawn) [Compound 39, 3-(3-{[(R)-4-ethyl-1,1-dioxide-3,4-dihydro-2H-benzo[b][1,4,5]oxathiazepin-2-yl]methyl}-4-methylphenyl)-3-(thiazol-5-yl)propanoic acid]
47 | 54 | CC[C@@H]1CN(Cc2cc(C(CC(=O)O)c3ccc(C(C)=O)n3CC)ccc2C)S(=O)(=O)c2ccccc2O1 (stereo partly drawn) [Compound 34, 3-(5-acetyl-1-ethyl-1H-pyrrol-2-yl)-3-(3-{[(R)-4-ethyl-1,1-dioxide-3,4-dihydro-2H-benzo[b][1,4,5]oxathiazepin-2-yl]methyl}-4-methylphenyl)propanoic acid]
24 | 7 | CC[C@@H]1CN(Cc2cc(C(CC(=O)O)c3ccc(C(=O)C4CC4)s3)ccc2C)S(=O)(=O)c2ccccc2O1 (stereo partly drawn) [Compound 20, 3-[5-(cyclopropanecarbonyl)thiophen-2-yl]-3-(3-{[(R)-4-ethyl-1,1-dioxide-3,4-dihydro-2H-benzo[b][1,4,5]oxathiazepin-2-yl]methyl}-4-methylphenyl)propanoic acid]
